The conditions of series [1]: human, in vivo.
Description: Patients were monitored for adverse events after the peptide administration in accordance with evaluation criteria for an adverse event, CTCAE (Common Terminology Criteria for Adverse Events v3.0 by JCOG/JSCO-Oct. 27, 2004).
Adverse event was monitored up to 1 week after the last immunization.
Criteria for determining an adverse event is in accordance with CTCAE (Common Terminology Criteria for Adverse Events v3.0) by JCOG/JSCO-Oct. 27, 2004; when the grade was 2/3 the test therapy was suspended, and when the grade was 4 or greater, the test therapy was terminated regardless of causal relationship to the test therapy.
For series [2], the system named is HLA-A*2402 positive cell lines that express WT1 naturally (KAZZ, KCL22, KH88, MEG01). Put plainly: Reactivity of WT1 peptide-specific cell lines toward tumor cells (IFN-γ ELISPOT). Type of series: cell-based, human. To be noted: cell lines established from HLA-A*2402 positive patients, FIG. 5. The source says:
Reactions of cell lines established from different patients are arranged in a bar graph.

Series [3] concerns the target T1, HLA-A*0206 molecule (Homo sapiens, UniProt P04439, D140Y/D185E/D98H/E176V/E277Q/F33Y/G131W/G231S/I119V/I121R/I166T/I218V/L300P/L318F/N151K/N90K/P208A/P217A/Q86G/Q94H/R138H/R169H/T345S).
T1 construct: expressed in transfected cells; host or cells: RA2.6 (mouse TAP-deficient RMAS cells transfected with pMKITneo bearing HLA-A*0206 cDNA)
Put plainly: Peptide binding to HLA-A*0206 molecule on RA2.6 cells (flow cytometry, Kd). As to conditions: HLA-A*0206, RA2.6 cells; read-out: Binding assay data (−log Kd) (converted). On the procedure:
The ability of a peptide to bind to an HLA-A*0206 molecule, which is a product of the HLA-A*0206 gene, was measured using RA2.6 cells (cell line newly generated in Kochi University), wherein cDNA of the HLA-A*0206 gene is introduced into RMAS, which is a mouse TAP (transporter associated with antigen processing)-deficient cell line.
RA2.6 cells were first cultured overnight at 26° C., during this incubation HLA-A*0206 molecules devoid of bound peptide accumulated. Serial dilutions of peptide were added to these cells and peptide binding was carried out at room temperature for 30 minutes.
Subsequently, culture was carried out at 37° C. for 3.5 hours, during this incubation empty HLA-A*0206 molecules to which no peptide was bound were denatured, and the tertiary structure was lost.
The cells were stained by adding thereto fluorescently-labeled monoclonal antibody BB7.2, which specifically recognizes the peptide-bound HLA-A*0206 molecule, and incubating on ice for 20 minutes.
Subsequently, the amount of fluorescence per cell was measured using a flow cytometer, and a dissociation constant Kd value was calculated by a method published in the literature (Udaka et al., Immunogenetics, 51, 816-828, 2000).
(In general: A flow cytometer gives signals particle by particle.)

The subject of series [4] is IFN-γ-producing cells in peripheral blood mononuclear cells. The series can be described thus: ELISPOT of patients' PBMCs before and after W10 peptide immunization. The series is classed as cell-based, human. As to the method:
In order to compare the cytotoxicity of peripheral blood mononuclear cells between that before administration of 5×10̂8 cells of whole-cell pertussis vaccine and 3 mg of W10 peptide to that after administering it three times, peripheral blood mononuclear cells were cultured with the immunizing peptide under conditions described later, and the number of cells that produced IFN-γ in a peptide-dependent manner were counted. The cells used for the ELISPOT assay are also described later.
The results are shown in FIG. 6 (response of PBMC of patients having HLA-A*2402), FIG. 7 (response of patients having HLA-A*0201), and FIG. 8 (response of patients having HLA-A*0206). The abscissa denotes the peptide that was bound to antigen presenting cells (in the figures, referred to as APCs (antigen presenting cells)), and the ordinate denotes the number of INF-γ-producing cells per 1×10̂4 cells. The response of peripheral blood mononuclear cells one week after three-time immunizations is shown with closed bars, and the response of peripheral blood mononuclear cells collected immediately before immunization is shown with open bars. […]
Peripheral blood mononuclear cells (PBMC) were stimulated in vitro once a week for a total of three times and then, the number of cells that produced IFN-γ in response to the antigen peptide were counted. […]

The source of these data is US20100255020A1, “METHOD FOR INDUCING CYTOTOXIC T-CELLS, CYTOTOXIC T-CELL INDUCERS, AND PHARMACEUTICAL COMPOSITIONS AND VACCINES EMPLOYING THEM” (NEC CORPORATION, priority 2007, published 2010).

Where no end group is shown, it is not given here.

With ALLPAVPSL [W10], in series [1], the “Adverse event due to peptide immunotherapy” value is “no adverse event due to peptide immunotherapy was observed, except for an erythema and mild swelling at the site of immunization”; the “Creatinine (Cre) adverse event” value is given as “Grade 2 increase of Cre”. Besides, the “Reactivity of peptide-dependent cell line toward WT1-expressing cell lines compared with C1R-A24” value in series [2] is “tends to be higher although differences are small”. The Kd (in general, the concentration at which binding is half-saturated) in series [3] is 18.2 nM. Moreover, in series [4] (patient KB07-006, after 1 mg W10 peptide for 3 weeks), the “Number of W10-reactive IFN-γ-producing T-cells” value is “increased”. The “Increase of cells producing IFN-γ in response to W10 peptide after immunization” value in series [4] (patients with HLA-A*2402, HLA-A*0201 or HLA-A*0206, 3 mg W10 + Wc x3) was “often observed”.
